*1 amine or outer side, *2 acyl side, *3 side chain or, on linkers, in order; H or OH if unused. Where a SMILES comes first, the peptide text is derived from it. Bridges are numbered along the chain shown (N, C = ends). [ ]: non-standard residue; d: D form. Suberoyl(Gly)2 = O=C(CCCCCCC(=O)NCC(=O)[*:2])NCC(=O)[*:1]; Lys(Thioacetyl) = CC(=S)NCCCC[C@H](N)C(=O)O; Suberoyl = O=C(CCCCCCC(=O)[*:2])[*:1]; Adipoyl = O=C(CCCCC(=O)[*:2])[*:1]; Suc = O=C(CCC(=O)[*:2])[*:1]
Assays:
[1] = molecular target: T1, NAD-dependent protein deacetylase sirtuin-3, mitochondrial (Homo sapiens, UniProt Q9NTG7); assay: Inhibition of human SIRT3 expressed in Escherichia coli BL21 (DE3) assessed as deacetylation using Z-Lys(Acetyl)-AMC as substrate measured after 4 hrs by fluorescence based microplate reader method in presence of 500 uM beta NAD+
T1 sequence (Q9NTG7 whole entry): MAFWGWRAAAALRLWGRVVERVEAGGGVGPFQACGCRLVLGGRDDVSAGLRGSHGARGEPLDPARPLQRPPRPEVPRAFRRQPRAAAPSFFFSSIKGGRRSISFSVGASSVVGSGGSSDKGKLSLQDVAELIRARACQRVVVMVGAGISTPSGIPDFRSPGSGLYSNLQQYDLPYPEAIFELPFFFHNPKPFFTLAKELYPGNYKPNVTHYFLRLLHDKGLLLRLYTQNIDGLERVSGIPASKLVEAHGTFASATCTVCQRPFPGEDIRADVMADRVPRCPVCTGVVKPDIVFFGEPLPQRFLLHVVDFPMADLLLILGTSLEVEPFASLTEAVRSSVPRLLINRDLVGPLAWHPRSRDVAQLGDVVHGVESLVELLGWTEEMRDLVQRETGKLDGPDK

[2] = molecular target: T2, NAD-dependent protein deacetylase sirtuin-1 (Homo sapiens, UniProt Q96EB6); assay: Inhibition of human SIRT1 (133 to 747 amino acid residues) assessed as deacetylation using Z-Lys(Acetyl)-AMC as substrate measured after 4 hrs by fluorescence based microplate reader method in presence of 500 uM beta-NAD+
T2 sequence (Q96EB6 whole entry): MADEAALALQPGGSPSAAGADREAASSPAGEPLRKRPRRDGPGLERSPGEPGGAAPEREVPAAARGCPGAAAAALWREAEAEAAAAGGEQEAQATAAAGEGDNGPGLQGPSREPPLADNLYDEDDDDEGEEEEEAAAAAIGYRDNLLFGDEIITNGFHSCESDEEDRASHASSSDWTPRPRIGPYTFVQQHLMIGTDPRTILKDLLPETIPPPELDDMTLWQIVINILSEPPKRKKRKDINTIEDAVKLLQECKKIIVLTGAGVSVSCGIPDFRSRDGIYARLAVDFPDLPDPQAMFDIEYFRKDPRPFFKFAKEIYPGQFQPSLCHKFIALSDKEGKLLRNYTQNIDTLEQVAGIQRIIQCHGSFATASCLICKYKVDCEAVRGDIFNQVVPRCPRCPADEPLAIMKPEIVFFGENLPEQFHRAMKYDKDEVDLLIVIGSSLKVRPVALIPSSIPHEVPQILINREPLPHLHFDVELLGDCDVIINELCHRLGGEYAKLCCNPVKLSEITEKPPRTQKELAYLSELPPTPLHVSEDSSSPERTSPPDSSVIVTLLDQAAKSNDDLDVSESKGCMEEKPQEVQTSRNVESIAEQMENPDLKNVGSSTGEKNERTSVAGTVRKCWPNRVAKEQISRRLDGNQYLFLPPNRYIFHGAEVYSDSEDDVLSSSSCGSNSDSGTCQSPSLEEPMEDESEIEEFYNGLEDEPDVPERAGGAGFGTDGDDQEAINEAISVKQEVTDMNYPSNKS

[3] = molecular target: T1, NAD-dependent protein deacetylase sirtuin-3, mitochondrial; assay: Inhibition of SIRT3 (unknown origin)
[4] = molecular target: T3, NAD-dependent protein deacetylase sirtuin-2 (Homo sapiens, UniProt Q8IXJ6); assay: Inhibition of human SIRT2
T3 sequence (Q8IXJ6 whole entry): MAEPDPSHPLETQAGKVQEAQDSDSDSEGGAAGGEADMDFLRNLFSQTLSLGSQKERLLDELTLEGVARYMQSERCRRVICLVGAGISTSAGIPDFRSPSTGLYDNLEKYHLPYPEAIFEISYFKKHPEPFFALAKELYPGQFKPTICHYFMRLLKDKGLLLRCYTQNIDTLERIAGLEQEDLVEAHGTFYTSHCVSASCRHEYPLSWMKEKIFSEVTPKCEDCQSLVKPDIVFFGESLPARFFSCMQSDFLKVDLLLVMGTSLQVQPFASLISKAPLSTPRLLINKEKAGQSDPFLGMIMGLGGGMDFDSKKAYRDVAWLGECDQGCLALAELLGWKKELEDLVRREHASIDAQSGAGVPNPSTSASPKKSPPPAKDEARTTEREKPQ

[5] = molecular target: T2, NAD-dependent protein deacetylase sirtuin-1; assay: Inhibition of SIRT1 (unknown origin)
[6] = molecular target: T3, NAD-dependent protein deacetylase sirtuin-2; assay: Inhibition of recombinant His6 tagged human SIRT2 using 0.39 mM H2N-HK-[N(epsilon)-acetyl-lysine]-LM-COOH as substrate measured after 12 mins HPLC analysis in presence of 0.5 mM beta-NAD+
[7] = molecular target: T2, NAD-dependent protein deacetylase sirtuin-1; assay: Inhibition of recombinant GST-tagged human SIRT1 using 0.3 mM H2N-HK-[N(epsilon)-acetyl-lysine]-LM-COOH as substrate measured after 10 mins HPLC analysis in presence of 0.5 mM beta-NAD+
[8] = molecular target: T1, NAD-dependent protein deacetylase sirtuin-3, mitochondrial; assay: Inhibition of recombinant His6 tagged human SIRT3 using 0.105 mM H2N-HK-[N(epsilon)-acetyl-lysine]-LM-COOH as substrate measured after 10 mins HPLC analysis in presence of 3.5 mM beta-NAD+

Row | IC50 [6] | IC50 [7] | IC50 [8] | Compound | also measured
1 | – | – | – | Cc1cc(C)nc(SCC(=O)Nc2ncc(Cc3cccc4ccccc34)s2)n1 | IC50 [1]: > 140 µM; IC50 [2]: > 140 µM
2 | – | – | – | CC[C@H](C)[C@@H]1NC(=O)[C@H](CCCNC(=N)N)NC(=O)[C@H](Cc2ccccc2)NC(=O)[C@H](CC(N)=O)NC(=O)[C@@H](CO)NC(=O)[C@H](Cc2ccc(O)cc2)NC(=O)CSC[C@@H](C(N)=O)NC(=O)[C@H](CO)NC(=O)[C@H](CO)NC(=O)[C@H](CC(N)=O)NC(=O)[C@H](CO)NC(=O)[C@H](Cc2ccc(O)cc2)NC(=O)[C@H](CCCNC(=N)N)NC(=O)[C@H](CCCCNC(=O)C(F)(F)F)NC1=O | IC50 [3]: 0.48 µM; IC50 [4]: 0.0032 µM; IC50 [5]: 0.047 µM
3 | 0.0589 µM | 0.0568 µM | 0.103 µM | CSCC[C@H](NC(=O)[C@@H]1CCCCNC(=O)CNC(=O)CCC(=O)NCC(=O)NCCCC[C@H](NC(C)=O)C(=O)N[C@@H](CCCCN)C(=O)N[C@@H](CCCCNC(C)=S)C(=O)N1)C(N)=O | –
4 | 0.0531 µM | 0.0387 µM | 0.0525 µM | CSCC[C@H](NC(=O)[C@@H]1CCCCNC(=O)CNC(=O)CCCCC(=O)NCC(=O)NCCCC[C@H](NC(C)=O)C(=O)N[C@@H](CCCCN)C(=O)N[C@@H](CCCCNC(C)=S)C(=O)N1)C(N)=O | –
5 | 0.332 µM | 0.165 µM | – | CSCC[C@H](NC(=O)[C@H](CC(C)C)NC(=O)[C@H](CCCCNC(C)=S)NC(=O)[C@H](CCCCN)NC(=O)[C@H](Cc1c[nH]cn1)NC(C)=O)C(N)=O (Ac-HK[Lys(Thioacetyl)]LM-NH2) | –
6 | 0.134 µM | 0.0635 µM | – | CSCC[C@H](NC(=O)[C@@H]1CCCCNC(=O)CCCCC(=O)NCCCC[C@H](NC(C)=O)C(=O)N[C@@H](CCCCN)C(=O)N[C@@H](CCCCNC(C)=S)C(=O)N1)C(N)=O (Ac-KK[Lys(Thioacetyl)]KM-NH2; linker 1-4 via Adipoyl) | –
7 | 0.144 µM | 0.0023 µM | 0.0429 µM | CSCC[C@H](NC(=O)[C@@H]1CCCCNC(=O)CNC(=O)CCCCCCC(=O)NCC(=O)NCCCC[C@H](NC(C)=O)C(=O)N[C@@H](CCCCN)C(=O)N[C@@H](CCCCNC(C)=S)C(=O)N1)C(N)=O (Ac-KK[Lys(Thioacetyl)]KM-NH2; linker 1-4 via Suberoyl(Gly)2) | –
8 | 0.404 µM | 0.0371 µM | – | CSCC[C@H](NC(=O)[C@@H]1CCCCNC(=O)CCCCCCC(=O)NCCCC[C@H](NC(C)=O)C(=O)N[C@@H](CCCCN)C(=O)N[C@@H](CCCCNC(C)=S)C(=O)N1)C(N)=O (Ac-KK[Lys(Thioacetyl)]KM-NH2; linker 1-4 via Suberoyl) | –
9 | 0.0101 µM | 0.0752 µM | – | CSCC[C@H](NC(=O)[C@@H]1CCCCNC(=O)CCC(=O)NCCCC[C@H](NC(C)=O)C(=O)N[C@@H](CCCCN)C(=O)N[C@@H](CCCCNC(C)=S)C(=O)N1)C(N)=O (Ac-KK[Lys(Thioacetyl)]KM-NH2; linker 1-4 via Suc) | –
